Source: patent publication US20260001888A1, “PYRAZOLOPYRIMIDINE PDE9 INHIBITORS” (Merck Sharp & Dohme LLC, priority 2018, published 2026)
pKi: −log10 of the molar value.

biological target: Human PDE9 (PDE9A2) (Homo sapiens (Human), UniProt O76083); assay: PDE9 IMAP fluorescence polarization (FP) inhibition assay; format: biochemical; conditions: apparent inhibition constant; human PDE9A2, FAM-cGMP substrate 50 nM, room temperature
How it was run: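 N-terminal GST-tagged full-length PDE9A2 membrane prep (0.5 ng/ml final) preincubated 30 min with compound at room temperature, then 50 nM FAM-cGMP added for 60 min; IMAP binding reagent stops reaction, FP read after 1 h. Controls: known PDE9 inhibitor (100%), 1% DMSO (0%). KI from four-parameter fit.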

Human PDE9 (PDE9A2), sequence (O76083 other isoform, or with tags, fused parts or gaps): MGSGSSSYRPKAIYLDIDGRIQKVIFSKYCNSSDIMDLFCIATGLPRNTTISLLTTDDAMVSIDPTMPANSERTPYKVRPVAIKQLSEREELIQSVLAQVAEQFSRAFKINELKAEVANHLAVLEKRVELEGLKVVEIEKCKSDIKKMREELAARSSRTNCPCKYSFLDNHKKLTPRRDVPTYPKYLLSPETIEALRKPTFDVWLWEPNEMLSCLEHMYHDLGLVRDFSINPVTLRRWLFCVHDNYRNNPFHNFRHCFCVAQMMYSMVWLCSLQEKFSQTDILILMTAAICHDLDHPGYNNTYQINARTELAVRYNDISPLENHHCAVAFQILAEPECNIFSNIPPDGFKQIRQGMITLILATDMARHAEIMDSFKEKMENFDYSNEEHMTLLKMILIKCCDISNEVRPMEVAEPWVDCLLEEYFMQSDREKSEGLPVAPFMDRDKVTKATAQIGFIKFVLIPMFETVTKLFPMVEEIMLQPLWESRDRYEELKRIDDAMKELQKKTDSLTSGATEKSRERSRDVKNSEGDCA

pKi	Compound
9.15	CCC(c1ncc(F)cn1)N(C)c1nc2c(c(C#N)nn2C(C)c2ccc(C3CC3)cc2)c(=O)[nH]1 (single isomer, unassigned) [Example 67, 1-[1-(4-cyclopropylphenyl)ethyl]-6-[1-(5-fluoropyrimidin-2-yl)propyl-methyl-amino]-4-oxo-5H-pyrazolo[3,4-d]pyrimidine-3-carbonitrile]
8.49	CCC(c1ncccn1)N(C)c1nc2c(c(C#N)nn2C(C)c2ccc(C3CC3)nc2)c(=O)[nH]1 (single isomer, unassigned) [Example 1, 1-(1-(6-Cyclopropylpyridin-3-yl)ethyl)-6-(methyl(1-(pyrimidin-2-yl)propyl)amino)-4-oxo-4,5-dihydro-1H-pyrazolo[3,4-d]pyrimidine-3-carbonitrile]
8.05	CC(c1ccc(C(F)(F)F)nc1)n1nc(C#N)c2c(=O)[nH]c(N(C)C(c3ncccn3)C3CCC3)nc21 (single isomer, unassigned) [Example 29, 6-[[cyclobutyl(pyrimidin-2-yl)methyl]-methyl-amino]-4-oxo-1-[1-[6-(trifluoromethyl)-3-pyridyl]ethyl]-5H-pyrazolo[3,4-a]pyrimidine-3-carbonitrile]
7.79	CC(c1ccc(C(F)(F)F)nc1)n1nc(C#N)c2c(=O)[nH]c(N(C)C(c3ncccn3)C3CCC3)nc21 (single isomer, unassigned) [Example 30, 6-[[cyclobutyl(pyrimidin-2-yl)methyl]-methyl-amino]-4-oxo-1-[1-[6-(trifluoromethyl)-3-pyridyl]ethyl]-5H-pyrazolo[3,4-a]pyrimidine-3-carbonitrile]
7.93	CCC(Nc1nc2c(c(C#N)nn2C(C)c2ccc(C(F)(F)F)nc2)c(=O)[nH]1)c1ncccn1 (single isomer, unassigned) [Example 71, 4-Oxo-6-((1-(pyrimidin-2-yl)propyl)amino)-1-(1-(6-(trifluoromethyl)pyridin-3-yl)ethyl)-4,5-dihydro-1H-pyrazolo[3,4-d]pyrimidine-3-carbonitrile]
7.47	CCC(c1ncc(F)cn1)N(C)c1nc2c(c(C#N)nn2C(C)c2ccc(C(F)(F)F)nc2)c(=O)[nH]1 (single isomer, unassigned) [Example 78, 6-((1-(5-fluoropyrimidin-2-yl)propyl)(methyl)amino)-4-oxo-1-(1-(6-(trifluoromethyl)pyridin-3-yl)ethyl)-4,5-dihydro-1H-pyrazolo[3,4-d]pyrimidine-3-carbonitrile]
7.64	CC(c1ccc(C(F)(F)F)nc1)n1nc(C#N)c2c(=O)[nH]c(N3CCC3c3ccc(F)cc3)nc21 (single isomer, unassigned) [Example 49, 6-[2-(4-fluorophenyl)azetidin-1-yl]-4-oxo-1-[1-[6-(trifluoromethyl)-3-pyridyl]ethyl]-5H-pyrazolo[3,4-d]pyrimidine-3-carbonitrile]
8.93	CC(Cc1nc2c(c(C#N)nn2C(C)c2ccc(C(F)(F)F)nc2)c(=O)[nH]1)c1ncccn1 (single isomer, unassigned) [Example 85, 4-oxo-6-(2-(pyrimidin-2-yl)propyl)-1-(1-(6-(trifluoromethyl)pyridin-3-yl)ethyl)-4,5-dihydro-1H-pyrazolo[3,4-d]pyrimidine-3-carbonitrile]
7.48	CC(Cc1nc2c(c(C#N)nn2C(C)c2ccc(C(F)(F)F)nc2)c(=O)[nH]1)c1ncccn1 (single isomer, unassigned) [Example 86, 4-oxo-6-(2-(pyrimidin-2-yl)propyl)-1-(1-(6-(trifluoromethyl)pyridin-3-yl)ethyl)-4,5-dihydro-1H-pyrazolo[3,4-d]pyrimidine-3-carbonitrile]
9.22	CC(c1ccc(C(F)(F)F)nc1)n1nc(C#N)c2c(=O)[nH]c(N3CCC3c3ccc(F)cc3)nc21 (single isomer, unassigned) [Example 50, 6-[2-(4-fluorophenyl)azetidin-1-yl]-4-oxo-1-[1-[6-(trifluoromethyl)-3-pyridyl]ethyl]-5H-pyrazolo[3,4-d]pyrimidine-3-carbonitrile]
11.00	CCC(c1ncccn1)N(C)c1nc2c(c(C#N)nn2C(C)c2ccc(C(F)(F)F)cc2)c(=O)[nH]1 (single isomer, unassigned) [Example 14, 6-[methyl(1-pyrimidin-2-ylpropyl)amino]-4-oxo-1-[1-[4-(trifluoromethyl)phenyl]ethyl]-5H-pyrazolo[3,4-d]pyrimidine-3-carbonitrile]
7.16	CC(C)C(c1ncccn1)N(C)c1nc2c(c(C#N)nn2C(C)c2ccc(C(F)(F)F)nc2)c(=O)[nH]1 (single isomer, unassigned) [Example 24, 6-[methyl-(2-methyl-1-pyrimidin-2-yl-propyl)amino]-4-oxo-1-[1-[6-(trifluoromethyl)-3-pyridyl]ethyl]-5H-pyrazolo[3,4-d]pyrimidine-3-carbonitrile]
8.11	CC(c1ccc(C(F)(F)F)nc1)n1nc(C#N)c2c(=O)[nH]c(N3CCC3c3ccc(F)cc3)nc21 (single isomer, unassigned) [Example 58, 6-[2-(4-fluorophenyl)azetidin-1-yl]-4-oxo-1-[1-[6-(trifluoromethyl)-3-pyridyl]ethyl]-5H-pyrazolo[3,4-d]pyrimidine-3-carbonitrile]
7.94	CCC(Nc1nc2c(c(C#N)nn2C(C)c2ccc(C(F)(F)F)nc2)c(=O)[nH]1)c1ncccn1 (single isomer, unassigned) [Example 74, 4-Oxo-6-((1-(pyrimidin-2-yl)propyl)amino)-1-(1-(6-(trifluoromethyl)pyridin-3-yl)ethyl)-4,5-dihydro-1H-pyrazolo[3,4-d]pyrimidine-3-carbonitrile]
9.64	CC(c1ccc(C(F)(F)F)nc1)n1nc(C#N)c2c(=O)[nH]c(N3CCC3c3ncccn3)nc21 (single isomer, unassigned) [Example 45, 4-oxo-6-(2-pyrimidin-2-ylazetidin-1-yl)-1-[1-[6-(trifluoromethyl)-3-pyridyl]ethyl]-5H-pyrazolo[3,4-d]pyrimidine-3-carbonitrile]
7.64	CC(c1ccc(C(F)(F)F)nc1)n1nc(C#N)c2c(=O)[nH]c(N3CCC3c3ncccn3)nc21 (single isomer, unassigned) [Example 47, 4-oxo-6-(2-pyrimidin-2-ylazetidin-1-yl)-1-[1-[6-(trifluoromethyl)-3-pyridyl]ethyl]-5H-pyrazolo[3,4-d]pyrimidine-3-carbonitrile]
8.17	CC(c1ccc(C(F)(F)F)nc1)n1nc(C#N)c2c(=O)[nH]c(N3CCC3c3ccc(F)cc3)nc21 (single isomer, unassigned) [Example 52, 6-[2-(4-fluorophenyl)azetidin-1-yl]-4-oxo-1-[1-[6-(trifluoromethyl)-3-pyridyl]ethyl]-5H-pyrazolo[3,4-d]pyrimidine-3-carbonitrile]
10.52	CCC(c1ncccn1)N(C)c1nc2c(c(C#N)nn2C(C)c2ccc(C3CC3)nc2)c(=O)[nH]1 (single isomer, unassigned) [Example 4, 1-(1-(6-Cyclopropylpyridin-3-yl)ethyl)-6-(methyl(1-(pyrimidin-2-yl)propyl)amino)-4-oxo-4,5-dihydro-1H-pyrazolo[3,4-d]pyrimidine-3-carbonitrile]
8.68	CCC(c1ncc(C(F)F)cn1)N(C)c1nc2c(c(C#N)nn2C(C)c2ccc(C(F)(F)F)nc2)c(=O)[nH]1 (single isomer, unassigned) [Example 18, 6-[1-[5-(difluoromethyl)pyrimidin-2-yl]propyl-methyl-amino]-4-oxo-1-[1-[6-(trifluoromethyl)-3-pyridyl]ethyl]-5H-pyrazolo[3,4-d]pyrimidine-3-carbonitrile]
7.88	C=CCCC(c1ncccn1)N(C)c1nc2c(c(C#N)nn2C(C)c2ccc(C(F)(F)F)nc2)c(=O)[nH]1 (single isomer, unassigned) [Example 42, 6-[methyl(1-pyrimidin-2-ylpent-4-enyl)amino]-4-oxo-1-[1-[6-(trifluoromethyl)-3-pyridyl]ethyl]-5H-pyrazolo[3,4-d]pyrimidine-3-carbonitrile]
7.26	CCC(c1ncc(F)cn1)N(C)c1nc2c(c(C#N)nn2C(C)c2ccc(C(F)(F)F)nc2)c(=O)[nH]1 (single isomer, unassigned) [Example 76, 6-((1-(5-fluoropyrimidin-2-yl)propyl)(methyl)amino)-4-oxo-1-(1-(6-(trifluoromethyl)pyridin-3-yl)ethyl)-4,5-dihydro-1H-pyrazolo[3,4-d]pyrimidine-3-carbonitrile]
7.03	CCC(Cc1nc2c(c(C#N)nn2C(C)c2ccc(C(F)(F)F)nc2)c(=O)[nH]1)c1ncccn1 (single isomer, unassigned) [Example 87, 4-oxo-6-(2-(pyrimidin-2-yl)butyl)-1-(1-(6-(trifluoromethyl)pyridin-3-yl)ethyl)-4,5-dihydro-1H-pyrazolo[3,4-d]pyrimidine-3-carbonitrile]
6.68	CC(c1ccc(C(F)(F)F)nc1)n1nc(C#N)c2c(=O)[nH]c(N3CCCC3c3ncccn3)nc21 (single isomer, unassigned) [Example 53, 4-oxo-6-(2-pyrimidin-2-ylpyrrolidin-1-yl)-1-[1-[6-(trifluoromethyl)-3-pyridyl]ethyl]-5H-pyrazolo[3,4-d]pyrimidine-3-carbonitrile]
9.30	CC(c1ccc(C(F)(F)F)nc1)n1nc(C#N)c2c(=O)[nH]c(CCc3ncc(C4CC4)cn3)nc21 (single isomer, unassigned) [Example 81, 6-(2-(5-cyclopropylpyrimidin-2-yl)ethyl)-4-oxo-1-(1-(6-(trifluoromethyl)pyridin-3-yl)ethyl)-4,5-dihydro-1H-pyrazolo[3,4-d]pyrimidine-3-carbonitrile]
8.00	CCC(c1ncccn1)N(C)c1nc2c(c(C#N)nn2C(C)c2ccc(C(F)(F)F)nc2)c(=O)[nH]1 (single isomer, unassigned) [Example 10, 6-[methyl(1-pyrimidin-2-ylpropyl)amino]-4-oxo-1-[1-[6-(trifluoromethyl)-3-pyridyl]ethyl]-5H-pyrazolo[3,4-d]pyrimidine-3-carbonitrile]
